What was measured:
[1] = tested on: BCL-2, VEGF-A, KRAS transcripts in MCF-7 cells; assay: Real time PCR of other oncogene transcripts; type: cell-based, human; conditions: MCF-7, 24 h, qPCR
Method: To inspect the transcription inhibitory roles of peptides in c-MYC, BCL-2, VEGF-A and KRAS oncogenes having putative quadruplexes in their promoters, we performed real time polymerase chain reactions. MCF-7 cells are sub-cultured into 6-well microtiter plates at a density of 1 × 10^6 cells per well and treated with different concentrations of peptides (FK13, KR12A, KR12B and KR12C) for 24 hours. Total RNA is isolated from both untreated and treated cells using TRIzol method (Invitrogen) as per manufacturer's instructions. 2 μg of total RNA is processed for cDNA synthesis and reverse transcribed using a Super MuLV RT Kit (Biobharati Life Sciences Pvt. Ltd.). Real time PCR is performed using Maxima SYBR Green/ROX qPCR Master Mix (2×) (Thermo-Scientific) as per manufacturer's protocol. Housekeeping gene, GAPDH is used as an internal control to normalize the variability in c-MYC mRNA expression levels (Supplementary information Section 1). PCR primers are designed using Primer-BLAST, NCBI, and analyzed in OligoAnalyser 3.1-IDT (Supplementary Table S2).

[2] = biological target: c-MYC quadruplex (Pu27); assay: ITC of KR12C with Pu27 under macromolecular crowding (MCF-7 nuclear extract); type: binding, human
Method: (§1) Thermodynamic attributes of the interaction profiles between peptides and putative quadruplex sequences are analysed by ITC using iTC200 Microcalorimeter at 25°C. Synthetic peptides (FK13, KR12A, KR12B, KR12C, KR12D and KR12E) are diluted to 20 μM in 10 mM Potassium phosphate buffer (10 mM K2HPO4 + 10 mM KH2PO4) containing 0.1 M KCl (pH 7.0). Syringe is filled with 500 μM quadruplex sequences present in the upstream promoter regions of c-MYC (Pu27, Pu19, and Myc22), BCL-2 (Pu30), VEGF-A (Pu22), KRAS (Pu32) oncogenes, and telomere (Tel26) dissolved into the same buffer. We also carried out the experiment for KR12C and Pu27 using MCF-7 nuclear extract as the solvent to mimic the cellular microenvironment and impart macromolecular crowding during binding events. Same concentration of oligonucleotides is injected into the identical buffer or in nuclear extract without peptides to normalize the heat of dilution of peptide-quadruplex association to that of the control before curve-fitting. […] The heat of reaction per injection (μcal/s) is determined by integration of the peak areas using in-built Origin 7.0 software that provides the best-fit values of enthalpy (ΔH) and entropy (ΔS) of binding, the binding stoichiometry (n), and dissociation constant (Kd) (Supplementary Tables S5(a), S5(b) and S5(c)). […]

[3] = tested on: BCL-2 (Pu30) quadruplex; assay: ITC of peptides with BCL-2 quadruplex; type: binding, human; conditions: potassium phosphate buffer pH 7.0
Method: as §1

[4] = tested on: telomere (Tel26) quadruplex; assay: ITC of peptides with telomeric quadruplex; type: binding, human; conditions: potassium phosphate buffer pH 7.0
Method: as §1

[5] = tested on: KRAS (Pu32) quadruplex; assay: ITC of peptides with KRAS quadruplex; type: binding, human; conditions: potassium phosphate buffer pH 7.0
Method: as §1

[6] = tested on: VEGF-A (Pu22) quadruplex; assay: ITC of peptides with VEGF-A quadruplex; type: binding, human; conditions: potassium phosphate buffer pH 7.0
Method: as §1

[7] = tested on: c-MYC quadruplex isomer Myc22; assay: CD melting of free and peptide-bound Myc22; type: binding, human
Method: (§2) To understand the role of peptides (FK13, KR12A, KR12B, KR12C, KR12D and KR12E) in stabilizing native and truncated isomers of c-MYC G-quadruplex, we have performed temperature-driven CD melting experiments for free and peptide-bound complexes in JASCO-J815 CD spectrometer. We have gradually titrated the peptides into 10 μM of putative quadruplexes and acquired the spectra after 5 min of peptide addition to allow complex formation and equilibration. Samples are heated from 20 to 95°C having the temperature gradient and the delay time of 2.5°C/min and 150 s respectively. Since the quadruplexes unfold at higher temperatures and revert back to their initial conformations upon renaturation, we have assumed a ‘two-state transition’ model (folded and unfolded) to analyze the melting curves and estimated the melting temperatures (Tm) by fitting the data points into sigmoidal curves (Supplementary information Section 1).

[8] = tested on: c-MYC quadruplex isomer Pu19; assay: CD melting of free and peptide-bound Pu19; type: binding, human; conditions: 10 μM quadruplex, two-state model
Method: as §2

[9] = tested on: MCF-7 cells; assay: Western blot / real time PCR of apoptotic markers and signalling proteins; type: cell-based, human; conditions: MCF-7, 5 and 10 μM KR12C, 24 h
Method: To observe the effect of KR12C in c-MYC protein expression, and to decipher the peptide-driven signaling pathway to trigger apoptosis within cancer cells, we have performed an array of Western Blot experiments. MCF-7 cells are seeded at a density of 7 × 10^5 cells per well into 60 mm dishes and allowed to attach overnight. Next day cells are serum starved for 18 h. At the end of 18 h fresh medium supplemented with 2% FBS +1% antibiotic and anti-mycotic is added. Then cells are treated with 5 μM and 10 μM KR12C. Recombinant VEGF is added at a concentration of 200 ng/ml of medium either alone or in combination with 10 μM KR12C. Cells are harvested after 24 hrs of treatment.
Whole cell lysate is prepared using the Cell Lysis Buffer (Cell Signalling Technologies) according to the manufacturer's protocol supplemented with Phenylmethylsulfonyl fluoride (PMSF) (Merck) and Protease Inhibitory Cocktail (PIC) (Merck). 40 μg of protein is separated using sodium dodecyl sulfate polyacrylamide gel electrophoresis (SDS-PAGE). (4% stacking gel and 12–15% resolving gel). Samples are transferred to polyvinylidene fluoride (PVDF) membranes (Immobilon-P, EMD Millipore). Membranes were blocked using 5% milk in Tris-buffered saline (TBS) with Tween 20 (Amresco) for 45 min at room temperature. Membranes are then incubated overnight at 4°C with the following antibodies: anti-c-Myc (Rabbit polyclonal, 1:500 dil. Cell Signalling Technology Inc.), Mouse anti-Bcl2 (Mouse monoclonal, 1:250 dil. Santacruz Biotechnology Inc.), anti E2F1, anti VEGF-A, anti-P53, anti-APAF1, anti-Caspase 8, anti-PARP (Abcam), anti-β-actin (Mouse monoclonal, 1:10 000 dil. Santacruz Biotechnology Inc.). Next membranes are incubated with peroxidase conjugated anti-rabbit IgG raised in Goat (Sigma, 1:8000 dil.) and peroxidase conjugated anti-mouse IgG raised in Rabbit (Sigma, 1:10 000 dil.) for 2 h at room temperature. Target proteins are visualised on membranes using Clarity TM Western ECL substrate (Bio-rad) and images are captured using ChemiDoc MP system with Image Lab™ software for PC version 6.0 (Bio-rad).

Row | Kd ([2]; 25°C, MCF-7 nuclear extract as solvent, single-site model, background subtracted) | fold increase in binding affinity for Pu27 in MCF-7 nuclear extract versus potassium phosphate buffer ([2]; macromolecular crowding) | binding affinity with BCL-2 quadruplex [3] | binding affinity with KRAS quadruplex [5] | binding affinity with VEGF-A quadruplex [6] | rise in the Tm of Myc22 upon peptide binding ([7]; 10 μM quadruplex, two-state model) | rise in the Tm of Pu19 upon peptide binding [8] | depletion of the melting temperature of Myc22 upon peptide binding [7] | Substance | transcription of other oncogenes (BCL-2, VEGF-A, KRAS) [1] | fold decreased affinity for BCL-2 quadruplex compared to c-MYC quadruplexes [3] | fold decreased affinity for telomeric quadruplex compared to c-MYC quadruplexes [4] | expression of p53, cleaved PARP, caspase 8 and APAF-1 ([9]; western blot) | BCL-2 expression at transcription and translation level ([9]; western blot and real time PCR) | VEGF-A and E2F-1 expression ([9]; western blot and real time PCR)
1 |  |  |  |  |  |  |  |  | N – FKRIVQRIKDFLR – C [FK13] | abrogated |  |  |  |  | 
2 | 901 nM | ~8 fold | very poor or no binding affinity | very poor or no binding affinity | very poor or no binding affinity | 6.91 °C | 10.87 °C |  | N – KRIVKLIKKWLR – C [KR12C] |  | ~3 fold | ~4 fold | significant upregulation | suppressed | significantly suppressed
3 |  |  |  |  |  |  |  | ~30 °C | N – KRIVQRIKKWLR – C [KR12A, dodecameric mutant peptide derived from FK13 / LL37] | abrogated |  |  |  |  | 
